Reference: publication PMC7011998 (Journal of Enzyme Inhibition and Medicinal Chemistry, 2017)
pIC50: −log10 of the molar value.

What was measured:
[1] = Dissolution of sulfonamides in clove oil; details: concentration 5 mg/ml in clove oil
Method: Oil phase was prepared by sulfonamides dissolution in the clove oil. A 5 mg of drug was weighted in an eppendorf and 1 ml of clove oil was added. The tube was agitated for 1 min for obtaining of the drug solution (5 mg/ml). Aqueous phase were prepared by adding 1 g of Pluronic F127® in 8 mg of water. Then 1 ml of oil phase (drug dissolved in clove oil) was added to 9 ml of aqueous phase (Pluronic F127 in water) under constant ultrasound homogenization (amplitude 80%, continuous cycle n. 1) during 5 min in an ice bath at 5 °C to prevent heating of the dispersion.
The NEs were produced with 10% of oil phase.

Trypanosoma cruzi = system: Trypanosoma cruzi; set-up: method as in PMID 23815159; details: unformulated sulfonamides; cited from earlier work
[2] = system: T. cruzi clone Dm28c epimastigotes; experiment: Growth inhibition of T. cruzi epimastigotes, resazurin microdilution, Dm28c; type: cell-based, Trypanosoma cruzi
Method: (§1) Epimastigote forms of the T. cruzi clone Dm28c ([…])[31] and Y([…])[32]^,[33] strains obtained from the Laboratory of Cellular Ultrastructure (both laboratories of the Oswaldo Cruz Foundation, Rio de Janeiro, Brazil) were used. The parasites were maintained in PBHIL medium supplemented with 10% bovine serum (FBS) at 28 °C[34].
(§2) The Minimum inhibitory concentration (MIC) for epimastigotes was performed with resazurin as an indicator of cellular metabolic function and it was determined as the lowest concentration capable of inhibiting in vitro growth of the parasites.

[3] = system: T. cruzi Y strain epimastigotes; experiment: Growth inhibition of T. cruzi epimastigotes, resazurin microdilution, Y strain; type: cell-based; details: Trypanosoma cruzi; TcY epimastigotes, drug nanoemulsions; read-out: IC90 (concentration which reduced the proliferation of epimastigotes by 90%)
Method: as §1, §2

[4] = system: T. cruzi Dm28c strain epimastigotes; experiment: Flow cytometry annexin V-FITC / propidium iodide, Dm28c; type: cell-based, Trypanosoma cruzi; details: 32 μM
Method: The analysis of the externalization of phosphatidylserine was performed using annexin V fluoresceine isothiocyanate (AV FITC) and propidium iodide, PI (Santa Cruz Biotechonology, Santa Cruz, CA). The cells were analysed by flow cytometry (FACS Calibur-Beckton-Dickinson), 50,000 events were analysed by the Paint-a-gate program and values were expressed as percentage of cells positive for a given marker relative to the total number of cells: FITC-labelled cells […], PI-labelled cells […], and cells with ruptured cell membrane (necrotic cells will be double-labelled).

Row | dissolution in clove oil [1] | Compound | in vivo anti-trypanosomal effects (Trypanosoma cruzi) | further results
1 | dissolved efficiently | NS(=O)(=O)c1nnc(NC(=O)Cc2ccc(Cl)cc2)s1 [5B] | did not show in vivo anti-trypanosomal effects | –
2 | dissolved efficiently | NS(=O)(=O)c1nnc(NC(=O)Cc2ccccc2Br)s1 [5C] | did not show in vivo anti-trypanosomal effects | –
3 | dissolved efficiently | COc1ccc(CC(=O)Nc2nnc(S(N)(=O)=O)s2)cc1 [5D] | did not show in vivo anti-trypanosomal effects | –

Further lines, the compound ahead of its results:

Row | Compound | dissolution in clove oil [1] | in vivo anti-trypanosomal effects (Trypanosoma cruzi) | further results
4 | NS(=O)(=O)c1ccc(NC(=O)Cc2ccc(Cl)cc2)c(F)c1 [3F] | dissolved efficiently | did not show in vivo anti-trypanosomal effects | –
5 | NS(=O)(=O)c1ccc(NC(=O)Cc2ccccc2Br)c(F)c1 [3G] | dissolved efficiently | did not show in vivo anti-trypanosomal effects | –
6 | NS(=O)(=O)c1ccc(CCNC(=O)Cc2ccccc2Br)cc1 [3W] | dissolved efficiently | did not show in vivo anti-trypanosomal effects | –
7 | O=C(Cn1ccnc1[N+](=O)[O-])NCc1ccccc1 [BZN, 2-nitro-imidazole-(N-benzil-2-nitro-1imidazoleacetamide)] | – | – | pIC50 ([2]; Trypanosoma cruzi, read-out: IC50 (concentration which reduced the proliferation of epimastigotes by 50%), Tc DM28c epimastigotes, drug nanoemulsions): 4.69; IC90 ([2]; Trypanosoma cruzi, Tc DM28c epimastigotes, drug nanoemulsions, read-out: IC90 (concentration which reduced the proliferation of epimastigotes by 90%)): > 128 µM; SI (selectivity index) ([2]; both strains (DM28c and Y), CC50 RAW / IC50): 5–5.8; IC90 [3]: > 128 µM; cell death by necrosis (propidium iodide) [4]: 51.16%
